The subject of assay [1] is P. gingivalis (Pg) biofilm. The assay can be described thus: Pg biofilm formation induced by Fn AI-2, crystal violet staining. The class given is cell-based, P. gingivalis (ATCC 33277). The procedure:
To test biofilm formation by Pg, a test was performed in the same manner as in Example 3. That is, a Pg culture broth (2 ml; negative control group, the number of bacteria: 4×10^8/ml), a mixture of Pg culture broth (2 ml) and Fn AI-2 (10% (v/v) with respect to the total volume of the mixture with Pg culture broth), or a mixture of Pg culture broth (2 ml) and Fn AI-2 (10% (v/v) with respect to the total volume of the mixture with Fn culture broth) and D-gal (2 mM) was added to a 24-well plate with a glass slip (round, 12 mm radius), and cultured under anaerobic conditions for 48˜72 hours. For comparison, 2 μM of the furanone compound [(5Z)-4-bromo-5-(bromomethylene)-2(5H)-furanone] was used instead of D-gal (2 mM) to perform the same test.
(§1) Biofilms formed on the cover slips were stained with 10% crystal violet [Tris(4-(dimethylamino)phenyl)methylium chloride] for 10 minutes, washed three times with PBS, and destained with 1 ml of acetone-alcohol (20:80, vol/vol). The optical density at 590 nm of the destaining solution containing crystal violet was measured using a microplate reader (a Wallac Victor3 microtiter, PerkinElmer Life Sciences, Waltham, Mass.). The smaller optical density (OD590) measured at 590 nm represents more inhibition of biofilm formation, that is, higher quorum sensing inhibitory effect of the used QSI candidate.

Assay [2] has as its system T. forsythia (Tf) biofilm. Put plainly: Tf biofilm formation induced by Fn AI-2, crystal violet staining. The class given is cell-based, T. forsythia (ATCC 43037). The note with it: for OD590 nm: Tf + Fn AI-2 10% (v/v), sugar 2 mM, 48-72 h, Tf/AI-2 control 0.48, Tf 0.32; for inhibitory effect on Tf biofilm formation, in words: crystal violet, sugars 2 mM. How it is done:
To test biofilm formation by Tf, a test was performed in the same manner as in Example 3. That is, a Tf culture broth (2 ml; a negative control group, the number of bacteria: 2×10^8/ml), a mixture of Tf culture broth (2 ml) and Fn AI-2 (10% (v/v) with respect to the total volume of the mixture with Tf culture broth), or a mixture of Tf culture broth (2 ml) and Fn AI-2 (10% (v/v) with respect to the total volume of the mixture with Tf culture broth) and D-gal (2 mM) was added to a 24-well plate with a glass slip (round, 12 mm radius), and cultured under anaerobic conditions for 48-72 hours. For comparison, 2 mM of D-rib or 2 μM of the furanone compound [(5Z)-4-bromo-5-(bromomethylene)-2(5H)-furanone] was used instead of D-gal to perform the same test.
as §1

In assay [3] the test system is P. gingivalis (Pg) biofilm. Put plainly: Pg biofilm formation induced by Fn secretory material, transwell, crystal violet. The note with it: for OD590 nm: Fn upper / Pg lower chamber, sugar 2 mM, 48-72 h, Fn/Pg control 0.57, Pg alone 0.30. The class given is cell-based. The procedure: In order to examine efficacies of quorum sensing inhibitor (QSI) candidates on biofilm formation of periodontopathogenic bacteria which is induced by a secretory material of F. nucleatum (Fn), a test was performed using a transwell system. AI-2 naturally secreted by Fn is contained in the secretory material of Fn. Therefore, in the test using the transwell system, Fn AI-2 was not directly added to bacteria, but Fn was put in an upper chamber and Pg or Tf was put in a lower chamber. Biofilms cultured and formed in the presence or absence of QSI candidates were stained with crystal violet, followed by analysis. These conditions are to evaluate whether Pg or Tf biofilm formation is influenced by not a purified AI-2 but an AI-2-containing secretory material naturally secreted by Fn, and whether QSI candidates such as D-gal is able to inhibit the biofilm formation if the biofilm is then formed.
More specifically, the transwell system (24-well) has an upper chamber and a lower chamber which are separated from each other by a membrane of 0.4 μm. 500 μl of F. nucelatum (Fn) culture broth (the number of bacteria: 2×10^7 CFU/ml) was cultured in the upper chamber. A glass slip was placed in the lower chamber, and then the same number of P. gingivalis(Pg) or T. forsythia(Tf) was inoculated in 1 ml of medium and cultured for 48-72 hours. The same QSI candidates were added to the upper and lower chambers. As the QSI candidates, 2 mM of sugar (D-rib or D-gal) was used and 2 μM of the furanone compound [(5Z)-4-bromo-5-(bromomethylene)-2(5H)-furanone] was used. In order to examine whether biofilm formation of the bacteria in the lower chamber is influenced by Fn secretory material and QSI candidates, the biofilms formed on the glass slip were stained with crystal violet, and then quantified (see Examples 3 to 5).

In another assay the test system is Fn AI-2 activity. The assay can be described thus: AI-2 activity, bioluminescence of reporter strain V. harveyi BB170. The class given is cell-based, Vibrio harveyi BB170 (ATCC BAA-1117). The note with it: for Bioluminescence: V. harveyi BB170 + Fn AI-2 10% (v/v), sugar 20 mM, lower = higher inhibition, Fn/AI-2 control 10712312, BB170 alone 856873. The procedure: The quorum sensing autoinducer, AI-2 stimulates luciferase operon (lux genes) of V. harveyi to induce luciferase expression, resulting in luminescence. Therefore, inhibition of AI-2 activity was confirmed by measuring bioluminescence by AI-2. Bioluminescence mediated by AI-2 was determined using the AI-2 reporter strain V. harveyi BB170. V. harveyi BB170 was cultured in AB medium overnight at 30° C. until OD600 nm=0.7. The bacteria were washed with fresh AB medium and diluted to a concentration of 10^6 cells/ml. Thereafter, V. harveyi BB170 culture broth (5 ml) was mixed with a partially purified F. nucleatum AI-2(′Fn AI-2′) and D-gal (0 or 20 mM) or D-rib (0 or 20 mM). The partially purified Fn AI-2 was obtained by partially purifying the Fn culture broth using a C18 Sep-Pak reverse-phase column (Waters Co., Milford, Mass.). The Fn culture broth or the partially purified Fn AI-2 was added such that a final concentration of AI-2 in the mixture was 10% (vol/vol). 10% (v/v) of Fn AI-2 corresponds to the Fn bacterial number of 1.9×10^8. Then, culture was performed at 30° C. for 1-8 hours. The bioluminescence was measured using a luminometer (GloMax1—Multi detection System, Promega, Madison, Wis.). BB170 is one of V. harveyi bacteria which have a characteristic of recognizing AI-2 to show bioluminescence. The higher bioluminescence value thus measured represents higher AI-2 activity.

Another assay deals with S. oxalis (So) biofilm. Put plainly: S. oxalis biofilm formation, crystal violet staining. The class given is cell-based, Streptococcus oxalis (ATCC 9811). Particulars: for OD590: So on saliva-coated glass slip, sugar 2 mM, So control 0.59. The procedure:
2 mL (2×10^7/ml) of the culture broth of a representative cariogenic bacterium S. mutans (Sm) and 2 mL (2×10^7/ml) of the culture broth of one of normal oral flora, S. oxalis (SO) were added to a saliva-coated glass slip (round, 12 mm radius), respectively and cultured with 0 mM or 2 mM of D-galactose to form biofilms. […] Further, the biofilms were stained with fluorescent materials using the live/dead-BacLight viability kit (Invitrogen, Grand Island, N.Y., USA), followed by analysis. For comparison, 2 μM of the furanone compound was used instead of D-galactose to perform the same test.

Each structure is given as a SMILES string.

In the case of `O=C[C@H](O)[C@@H](O)[C@@H](O)[C@H](O)CO` [D-gal, D-galactose], the OD590 nm in assay [1] (Pg + Fn AI-2 10% (v/v), D-gal 2 mM, 48-72 h, Pg/AI-2 control 2.00, Pg 0.66) turned out to be 1.24; in assay [2], 0.2; in assay [3], 0.45. Moreover, the “inhibitory effect on Pg biofilm formation, in words” value in assay [1] (crystal violet, D-gal 2 mM vs furanone 2 μM) is given as “equivalent to that of the furanone compound”. The “inhibitory effect on Tf biofilm formation, in words” value in assay [2] was “excellent inhibitory effect”. Further, the “inhibitory effect on Pg biofilm formation induced by Fn secretory material, in words” value in assay [3] (D-gal 2 mM compared to D-rib 2 mM) was “remarkably excellent inhibitory effect, compared to D-rib”. For the same compound, in the assay with Fn AI-2 activity (D-gal 20 mM vs D-rib 20 mM), the “bioluminescence relative to the bioluminescence upon addition of D-rib” value is reported as “about 20%”. Further, the Bioluminescence in the assay with Fn AI-2 activity is reported as 1138752. The “quorum sensing inhibitory efficacy relative to D-ribose, in words” value in the assay on Fn AI-2 activity (general statement of the specification) is “twice higher than that of D-ribose”. This compound also had an OD590 with S. oxalis (So) biofilm of 1.07. Further, in the assay on S. oxalis (So) biofilm (crystal violet, D-gal 2 mM compared to D-rib and the furanone compound), the “effect on So biofilm formation, in words” value is recorded as “did not inhibit but increased biofilm formation”.

As to `O=C[C@H](O)[C@H](O)[C@H](O)CO` [D-rib, D-ribose, reference compound], in assay [2], the OD590 nm was found to be 0.41 and the “inhibitory effect on Tf biofilm formation, in words” value was “significant inhibitory effect”. Moreover, the OD590 nm in assay [3] turned out to be 0.58. In addition, the Bioluminescence with Fn AI-2 activity is given as 5481975. Also, the OD590 with S. oxalis (So) biofilm is recorded as 0.85.

The values above are taken from patent US20190224222A1, “METHOD OF INHIBITING QUORUM SENSING USING D-GALACTOSE” (Seoul National University R&DB Foundation, priority 2014, published 2019).
